According to patent publication US12552829B2, “Compositions and methods for treating CNS disorders” (SAGE THERAPEUTICS, INC., priority 2019, dated 2026):

biological target: [35S]-TBPS binding, rat brain cortical membranes (GABAA receptor); experiment: Steroid inhibition of [35S]-TBPS binding; settings: 3 nM [35S]-TBPS, in the presence of 5 mM GABA, 90 min at room temp
Method: [^35S]-t-Butylbicyclophosphorothionate (TBPS) binding assays using rat brain cortical membranes in the presence of 5 mM GABA has been described (Gee et al, J. Pharmacol. Exp. Ther. 1987, 241, 346-353; Hawkinson et al, Mol. Pharmacol. 1994, 46, 977-985; Lewin, A. H et al., Mol. Pharmacol. 1989, 35, 189-194).
Briefly, cortices are rapidly removed following decapitation of carbon dioxide-anesthetized Sprague-Dawley rats (200-250 g). The cortices are homogenized in 10 volumes of ice-cold 0.32 M sucrose using a glass/teflon homogenizer and centrifuged at 1500×g for 10 min at 4° C. The resultant supernatants are centrifuged at 10,000×g for 20 min at 4° C. to obtain the P2 pellets. The P2 pellets are resuspended in 200 mM NaCl/50 mM Na-K phosphate pH 7.4 buffer and centrifuged at 10,000×g for 10 min at 4° C. This washing procedure is repeated twice and the pellets are resuspended in 10 volumes of buffer. Aliquots ([…]) of the membrane suspensions are incubated with 3 nM [^35S]-TBPS and […] aliquots of test drug dissolved in dimethyl sulfoxide (DMSO) (final 0.5%) in the presence of 5 mM GABA. The incubation is brought to a final volume of 1.0 mL with buffer. Nonspecific binding is determined in the presence of […] and ranged from 15 to 25%. Following a 90 min incubation at room temp, the assays are terminated by filtration through glass fiber filters (Schleicher and Schuell No. 32) using a cell harvester (Brandel) and rinsed three times with ice-cold buffer. Filter bound radioactivity is measured by liquid scintillation spectrometry. Non-linear curve fitting of the overall data for each drug averaged for each concentration is done using Prism (GraphPad). […] The concentration of test compound producing 50% inhibition (IC50) of specific binding and the maximal extent of inhibition (Imax) are determined for the individual experiments with the same model used for the overall data and then the means±SEM.s of the individual experiments are calculated.
Various compounds are or can be screened to determine their potential as modulators of [^35S]-TBPS binding in vitro. These assays are or can be performed in accordance with the above.

Q: With `COC[C@@]1(O)CC[C@H]2[C@H](CC[C@@H]3[C@@H]2CC[C@@]2(C)[C@H]3[C@H](C)CC[C@@H]2[C@@](C)(O)Cn2cc(C#N)cn2)C1` (single isomer, unassigned) [Example 32] as the compound, how does the IC50 read?
A: Its IC50 is under 100 nM.

Q: Which IC50 does the source give for `CCC[C@@]1(O)CC[C@H]2[C@H](CC[C@@H]3[C@@H]2CC[C@@]2(C)[C@H]3[C@H](C)CC[C@@H]2[C@@](C)(O)Cn2cc(C#N)cn2)C1` (single isomer, unassigned) [Example 34] here?
A: Its IC50 is under 100 nM.

Q: For `CCC[C@@]1(O)CC[C@H]2[C@@H](CC[C@@H]3[C@@H]2CC[C@@]2(C)[C@H]3CCC[C@@H]2[C@](C)(O)Cn2cc(C#N)cn2)C1` [Example 1, 1-((S)-2-hydroxy-2-((1S,4aS,4bR,6aS,8R,10aS,10bR,12aS)-8-hydroxy-12a-methyl-8-propyloctadecahydrochrysen-1-yl)propyl)-1H-pyrazole-4-carbonitrile], which IC50 is on record?
A: The IC50 was 100 to 1000 nM.

Q: For `CCC[C@@]1(O)CC[C@H]2[C@@H](CC[C@@H]3[C@@H]2CC[C@@]2(C)[C@H]3CCC[C@@H]2[C@@](C)(O)Cn2cc(C#N)cn2)C1` [Example 2, 1-((R)-2-hydroxy-2-((1S,4aS,4bR,6aS,8R,10aS,10bR,12aS)-8-hydroxy-12a-methyl-8-propyloctadecahydrochrysen-1-yl)propyl)-1H-pyrazole-4-carbonitrile], which IC50 is on record?
A: Its IC50 is 100 to 1000 nM.

Q: How did the IC50 turn out when `CC[C@@]1(O)CC[C@H]2[C@H](CC[C@@H]3[C@@H]2CC[C@@]2(C)[C@H]3CCC[C@@H]2[C@](C)(O)Cn2cc(C#N)cn2)C1` [Example 7, 1-((S)-2-((1S,4aS,4bR,6aR,8R,10aS,10bR,12aS)-8-ethyl-8-hydroxy-12a-methyloctadecahydrochrysen-1-yl)-2-hydroxypropyl)-1H-pyrazole-4-carbonitrile] was run?
A: The IC50 was 100 to 1000 nM.

Q: How did the IC50 turn out when `CCC[C@@]1(O)CC[C@H]2[C@H](CC[C@@H]3[C@@H]2CC[C@@]2(C)[C@H]3CCC[C@@H]2[C@](C)(O)Cn2cc(C#N)cn2)C1` [Example 9, 1-((S)-2-hydroxy-2-((1S,4aS,4bR,6aR,8R,10aS,10bR,12aS)-8-hydroxy-12a-methyl-8-propyloctadecahydrochrysen-1-yl)propyl)-1H-pyrazole-4-carbonitrile] was run?
A: Its IC50 is under 100 nM.

Q: For `CC[C@@]1(O)CC[C@H]2[C@@H](CC[C@@H]3[C@@H]2CC[C@@]2(C)[C@H]3CCC[C@@H]2[C@@](C)(O)Cn2cc(C#N)cn2)C1` [Example 11, 1-((R)-2-((1S,4aS,4bR,6aS,8R,10aS,10bR,12aS)-8-ethyl-8-hydroxy-12a-methyloctadecahydrochrysen-1-yl)-2-hydroxypropyl)-1H-pyrazole-4-carbonitrile], which IC50 is on record?
A: Its IC50 is 100 to 1000 nM.

Q: With `C[C@@]1(O)CC[C@@]2(C)[C@H](CC[C@@H]3[C@@H]2CC[C@@]2(C)[C@H]3CCC[C@@H]2[C@@](C)(O)Cn2cc(C#N)cn2)C1` [Example 15, 1-((R)-2-hydroxy-2-((1S,4aS,4bR,6aR,8R,10aS,10bS,12aS)-8-hydroxy-8,10a,12a-trimethyloctadecahydrochrysen-1-yl)propyl)-1H-pyrazole-4-carbonitrile] as the compound, how does the IC50 read?
A: Its IC50 is 100 to 1000 nM.

Q: With `CCC[C@@]1(O)CC[C@@]2(C)[C@@H](CC[C@@H]3[C@@H]2CC[C@@]2(C)[C@H]3CCC[C@@H]2[C@@](C)(O)Cn2cc(C#N)cn2)C1` [Example 17, 1-((R)-2-hydroxy-2-((1S,4aS,4bR,6aS,8R,10aS,10bS,12aS)-8-hydroxy-10a,12a-dimethyl-8-propyloctadecahydrochrysen-1-yl)propyl)-1H-pyrazole-4-carbonitrile] as the compound, how does the IC50 read?
A: Its IC50 is at least 1000 nM.

Q: How did the IC50 turn out when `C[C@]1(O)CCC2=CC[C@H]3[C@@H]4CC[C@H]([C@](C)(O)Cn5cc(C#N)cn5)[C@@]4(C)CC[C@@H]3[C@@]2(C)CC1` [Example 18, 1-((S)-2-hydroxy-2-((1S,3aS,3bS,8S,10aR,10bS,12aS)-8-hydroxy-8,10a,12a-trimethyl-1,2,3,3a,3b,4,6,7,8,9,10,10a,10b,11,12,12a-hexadecahydrocyclohepta[a]cyclopenta[f]naphthalen-1-yl)propyl)-1H-pyrazole-4-carbonitrile] was run?
A: The IC50 was 100 to 1000 nM.

Q: How did the IC50 turn out when `C[C@]1(O)CCC2=CC[C@H]3[C@@H]4CC[C@H]([C@@](C)(O)Cn5cc(C#N)cn5)[C@@]4(C)CC[C@@H]3[C@@]2(C)CC1` [Example 19, 1-((R)-2-hydroxy-2-((1S,3aS,3bS,8S,10aR,10bS,12aS)-8-hydroxy-8,10a,12a-trimethyl-1,2,3,3a,3b,4,6,7,8,9,10,10a,10b,11,12,12a-hexadecahydrocyclohepta[a]cyclopenta[f]naphthalen-1-yl)propyl)-1H-pyrazole-4-carbonitrile] was run?
A: Its IC50 is under 100 nM.

Q: For `C[C@@]1(O)CCC[C@H]2[C@H](CC[C@@H]3[C@@H]2CC[C@@]2(C)[C@H]3CC[C@@H]2[C@](C)(O)Cn2cc(C#N)cn2)C1` [Example 20, 1-((S)-2-hydroxy-2-((1S,3aS,3bR,5aR,7R,10aS,10bR,12aS)-7-hydroxy-7,12a-dimethyloctadecahydrocyclohepta[a]cyclopenta[f]naphthalen-1-yl)propyl)-1H-pyrazole-4-carbonitrile], which IC50 is on record?
A: Its IC50 is under 100 nM.

Q: With `C[C@@]1(O)CCC[C@H]2[C@H](CC[C@@H]3[C@@H]2CC[C@@]2(C)[C@H]3CC[C@@H]2[C@@](C)(O)Cn2cc(C#N)cn2)C1` [Example 21, 1-((R)-2-hydroxy-2-((1S,3aS,3bR,5aR,7R,10aS,10bR,12aS)-7-hydroxy-7,12a-dimethyloctadecahydrocyclohepta[a]cyclopenta[f]naphthalen-1-yl)propyl)-1H-pyrazole-4-carbonitrile] as the compound, how does the IC50 read?
A: Its IC50 is 100 to 1000 nM.

Q: With `C[C@]1(O)CC[C@@H]2CC[C@@H]3[C@H](CC[C@@]4(C)[C@H]3CC[C@@H]4[C@@](C)(O)Cn3cc(C#N)cn3)[C@@]2(C)CC1` [Example 23, 1-((R)-2-hydroxy-2-((1S,3aS,3bR,5aS,8S,10aS,10bS,12aS)-8-hydroxy-8,10a,12a-trimethyloctadecahydrocyclohepta[a]cyclopenta[f]naphthalen-1-yl)propyl)-1H-pyrazole-4-carbonitrile] as the compound, how does the IC50 read?
A: The IC50 was 100 to 1000 nM.

Q: With `C[C@@H]1CC[C@H]([C@@](C)(O)Cn2cc(C#N)cn2)[C@@]2(C)CC[C@H]3[C@@H](CC[C@@H]4C[C@](C)(O)CC[C@@H]43)[C@H]12` [Example 24, 1-((R)-2-hydroxy-2-((1S,4R,4aS,4bR,6aR,8R,10aS,10bR,12aS)-8-hydroxy-4,8,12a-trimethyloctadecahydrochrysen-1-yl)propyl)-1H-pyrazole-4-carbonitrile] as the compound, how does the IC50 read?
A: The IC50 was under 100 nM.

Q: With `C[C@@H]1CC[C@H]([C@](C)(O)Cn2cc(C#N)cn2)[C@@]2(C)CC[C@H]3[C@@H](CC[C@@H]4C[C@](C)(O)CC[C@@H]43)[C@H]12` [Example 25, 1-((S)-2-hydroxy-2-((1S,4R,4aS,4bR,6aR,8R,10aS,10bR,12aS)-8-hydroxy-4,8,12a-trimethyloctadecahydrochrysen-1-yl)propyl)-1H-pyrazole-4-carbonitrile] as the compound, how does the IC50 read?
A: The IC50 was under 100 nM.

Q: For `C[C@H]1[C@H]2[C@@H]3CC[C@@H]4C[C@](C)(O)CC[C@@H]4[C@H]3CC[C@]2(C)[C@@H]([C@](C)(O)Cn2cc(C#N)cn2)C[C@@H]1C` [Example 26, 1-((S)-2-hydroxy-2-((1S,3S,4R,4aS,4bR,6aR,8R,10aS,10bR,12aS)-8-hydroxy-3,4,8,12a-tetramethyloctadecahydrochrysen-1-yl)propyl)-1H-pyrazole-4-carbonitrile], which IC50 is on record?
A: The IC50 was under 100 nM.

Q: With `C[C@H]1[C@H]2[C@@H]3CC[C@@H]4C[C@](C)(O)CC[C@@H]4[C@H]3CC[C@]2(C)[C@@H]([C@@](C)(O)Cn2cc(C#N)cn2)C[C@@H]1C` [Example 27, 1-((R)-2-hydroxy-2-((1S,3S,4R,4aS,4bR,6aR,8R,10aS,10bR,12aS)-8-hydroxy-3,4,8,12a-tetramethyloctadecahydrochrysen-1-yl)propyl)-1H-pyrazole-4-carbonitrile] as the compound, how does the IC50 read?
A: Its IC50 is under 100 nM.
